Publication PMC7679387, “VZHE-039, a novel antisickling agent that prevents erythrocyte sickling under both hypoxic and anoxic conditions” (Scientific Reports, 2020)

Key:
[1] = Caco-2 bi-directional permeability; assay type: in vitro ADME, human; conditions: human, Caco-2, pH 7.4; read-out: Efflux ratio (Re)
Experimental: (§1) Toxicity concerns remain an important issue in the use of aromatic aldehydes in treating a chronic disease, such as SCD, especially as it involves modification of a large amount of in vivo present Hb. […] We evaluated key metrics such as in vitro RBC partitioning and ADME/safety profiles, in order to glean important safety insights. […] We also assessed VZHE-039 at 10 μM for its bi-directional cell permeability using Caco-2 cell monolayers[53],[54].
(§2) Human epithelial colorectal adenocarcinoma (Caco-2) cells (HTB-37) were cultured in T75 flasks using complete Dulbecco’s Modified Eagles Medium (DMEM) containing 10% fetal bovine serum (FBS), 1% glutamine, 1% penicillin and 1% streptomycin, at 37 °C in a 5% CO2 atmosphere. Cells were passaged at 80–90% confluency using 0.05% trypsin–EDTA and the medium was changed every other day. Following this, the cells were trypsinized, suspended in medium and applied to a Millipore 96-well plate where they were cultured as monolayers at a density of 25,000 cells/well. The cells were incubated in a 37 °C/5% CO2 incubator to allow cell attachment and proliferation. Media was changed every 2–3 days for 21 days when cells reached 100% confluency. For Apical → Basolateral (A → B) permeability, 10 μM VZHE-039 was added to the apical (A) side and the amount of permeation determined on the basolateral (B) side; for Basolateral → Apical (B → A) permeability, 10 μM VZHE-039 was added to the B-side and the amount of permeation was determined on the A side. The A-side buffer contained 100 μM lucifer yellow dye, in Transport Buffer (1.98 g/L glucose in 10 mM HEPES, 1 × Hank’s Balanced Salt Solution) pH 7.4, and the B-side buffer used was the Transport Buffer at pH 7.4. Caco-2 cells were incubated with 10 μM VZHE0-39 in these buffers for 2 h. Ranitidine (low permeability), Warfarin (high permeability) and Talinolol (P-gp efflux control) were used as controls. […] Following centrifugation, the supernatant for donor and receiver side samples was analyzed by LC–MS/MS to determine peak area ratios.
(§3) The efflux ratio (Re) was calculated as: Re=PappB→A/PappA→B

[2] = test system: Caco-2 cell monolayers; assay: Caco-2 bi-directional permeability; assay type: in vitro ADME, human; conditions: Caco-2 monolayers
Experimental: as §1, §2, §3

[3] = target: T1, CYP1A2 (Homo sapiens, UniProt P05177); assay: In vitro CYP inhibition, pooled human liver microsomes
T1 sequence (P05177 1-516): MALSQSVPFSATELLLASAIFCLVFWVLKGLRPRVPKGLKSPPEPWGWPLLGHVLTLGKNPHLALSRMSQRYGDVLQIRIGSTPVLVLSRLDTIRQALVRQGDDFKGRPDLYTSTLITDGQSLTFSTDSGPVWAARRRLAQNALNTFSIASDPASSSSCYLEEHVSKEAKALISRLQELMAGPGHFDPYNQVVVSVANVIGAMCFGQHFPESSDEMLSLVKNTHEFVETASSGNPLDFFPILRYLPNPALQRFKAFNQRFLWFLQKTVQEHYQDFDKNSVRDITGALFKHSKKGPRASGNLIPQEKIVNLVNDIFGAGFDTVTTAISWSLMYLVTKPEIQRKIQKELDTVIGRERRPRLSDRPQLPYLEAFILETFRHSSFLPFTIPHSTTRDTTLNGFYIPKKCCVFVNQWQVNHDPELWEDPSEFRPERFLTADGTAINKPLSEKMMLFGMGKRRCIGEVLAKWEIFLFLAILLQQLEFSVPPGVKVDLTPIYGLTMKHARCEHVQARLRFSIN
Experimental: (§4) Next, we tested VZHE-039 at concentrations of 0.1 to 100 µM, considered to be biologically relevant unbound plasma concentrations, for possible CYP inhibition using pooled human liver microsomes and isozyme-specific probe substrates (CYP1A2, CYP2C8, CYP2C9, CYP2C19, CYP2D6, CYP3A4, CYP2B6)[55].
VZHE-039 was studied for its inhibitory potential of seven major drug metabolizing human cytochrome P450 (CYP) enzymes (CYP1A2, CYP2C8, CYP2C9, CYP2C19, CYP2D6, CYP3A4, CYP2B6) using pooled human liver microsomes as published previously[26],[55]. The probe substrates include tacrine (CYP1A2), amodiaquine (CYP2C8), tolbutamide (CYP2C9), mephenytoin (CYP2C19), dextromethorphan (CYP2D6), midazolam (CYP3A4), testosterone (CYP3A4), and bupropion (CYP2B6). […] Assay conditions were optimized for each human cytochrome P450 substrate. The optimized reaction mixtures (200 μL) contained a final concentration of 0.2–0.5 mg/mL pooled human liver microsomes, 2 mM NADPH in 100 mM potassium phosphate, pH 7.4 buffer with 5 mM MgCl2, and VZHE-039 concentration of 0.1 to 100 µM. […] Effect of VZHE-039 on formation of the respective probe substrate metabolites (velnacrine, N‐desethylamodiaquine, 4-hydroxytolbutamide, 4′-hydroxymephenytoin, dextrophan, 1′-hydroxymidazolam, and 6β-hydroxtestosterone and hydroxybupropion) were determined using LC–MS/MS.

[4] = target: T2, CYP2C19 (Homo sapiens, UniProt P33261); assay: as above; assay type: in vitro ADME; conditions: substrate S-Mephentoin
T2 construct: 0.2–0.5 mg/mL pooled human liver microsomes; from tissue; host or cells: pooled human liver microsomes
T2 sequence (P33261 whole entry): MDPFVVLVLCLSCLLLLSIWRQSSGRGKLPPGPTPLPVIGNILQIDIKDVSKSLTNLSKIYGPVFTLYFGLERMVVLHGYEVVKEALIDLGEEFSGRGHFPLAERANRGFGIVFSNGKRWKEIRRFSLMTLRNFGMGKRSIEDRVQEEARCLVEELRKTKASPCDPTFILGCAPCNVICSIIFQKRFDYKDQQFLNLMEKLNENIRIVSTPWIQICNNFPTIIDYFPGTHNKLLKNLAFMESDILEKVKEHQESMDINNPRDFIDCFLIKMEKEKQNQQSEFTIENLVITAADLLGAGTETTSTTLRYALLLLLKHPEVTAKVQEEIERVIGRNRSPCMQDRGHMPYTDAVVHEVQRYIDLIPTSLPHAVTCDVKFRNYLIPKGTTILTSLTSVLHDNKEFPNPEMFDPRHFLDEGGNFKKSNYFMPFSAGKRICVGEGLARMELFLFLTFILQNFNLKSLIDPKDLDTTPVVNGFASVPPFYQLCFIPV
Experimental: as §4
(§5) VZHE-039 was studied for its inhibitory potential of seven major drug metabolizing human cytochrome P450 (CYP) enzymes (CYP1A2, CYP2C8, CYP2C9, CYP2C19, CYP2D6, CYP3A4, CYP2B6) using pooled human liver microsomes as published previously[26],[55]. The probe substrates include tacrine (CYP1A2), amodiaquine (CYP2C8), tolbutamide (CYP2C9), mephenytoin (CYP2C19), dextromethorphan (CYP2D6), midazolam (CYP3A4), testosterone (CYP3A4), and bupropion (CYP2B6). […] Assay conditions were optimized for each human cytochrome P450 substrate. The optimized reaction mixtures (200 μL) contained a final concentration of 0.2–0.5 mg/mL pooled human liver microsomes, 2 mM NADPH in 100 mM potassium phosphate, pH 7.4 buffer with 5 mM MgCl2, and VZHE-039 concentration of 0.1 to 100 µM. The assays were performed in duplicate in 96-well plates at 37 °C for 10–60 min. The reaction was terminated with addition of methanol, followed by incubation at 4 °C for 10 min and centrifuged at 4 °C for 10 min. Effect of VZHE-039 on formation of the respective probe substrate metabolites (velnacrine, N‐desethylamodiaquine, 4-hydroxytolbutamide, 4′-hydroxymephenytoin, dextrophan, 1′-hydroxymidazolam, and 6β-hydroxtestosterone and hydroxybupropion) were determined using LC–MS/MS.

[5] = target: T3, CYP2C9 (Homo sapiens, UniProt P11712); assay: as above; assay type: in vitro ADME; conditions: substrate Tolbutamide
T3 construct: 0.2–0.5 mg/mL pooled human liver microsomes; from tissue; host or cells: pooled human liver microsomes
T3 sequence (P11712 whole entry): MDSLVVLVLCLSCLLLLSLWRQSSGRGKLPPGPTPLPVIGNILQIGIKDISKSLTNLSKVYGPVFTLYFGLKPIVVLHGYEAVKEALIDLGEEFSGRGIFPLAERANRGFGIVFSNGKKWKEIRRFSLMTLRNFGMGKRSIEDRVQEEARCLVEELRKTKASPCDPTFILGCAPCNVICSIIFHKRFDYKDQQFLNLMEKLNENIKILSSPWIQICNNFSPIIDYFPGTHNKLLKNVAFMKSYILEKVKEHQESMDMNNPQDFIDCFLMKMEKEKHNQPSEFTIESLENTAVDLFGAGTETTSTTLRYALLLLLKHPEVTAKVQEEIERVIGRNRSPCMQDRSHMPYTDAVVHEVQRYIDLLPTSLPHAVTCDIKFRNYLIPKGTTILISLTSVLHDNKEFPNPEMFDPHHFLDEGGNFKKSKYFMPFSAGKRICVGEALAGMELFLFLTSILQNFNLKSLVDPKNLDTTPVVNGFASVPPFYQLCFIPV
Experimental: as §4, §5

[6] = target: T4, CYP2D6 (Homo sapiens, UniProt P10635); assay: as above; assay type: in vitro ADME; conditions: substrate Dextromethorphan
T4 construct: 0.2–0.5 mg/mL pooled human liver microsomes; from tissue; host or cells: pooled human liver microsomes
T4 sequence (P10635 whole entry): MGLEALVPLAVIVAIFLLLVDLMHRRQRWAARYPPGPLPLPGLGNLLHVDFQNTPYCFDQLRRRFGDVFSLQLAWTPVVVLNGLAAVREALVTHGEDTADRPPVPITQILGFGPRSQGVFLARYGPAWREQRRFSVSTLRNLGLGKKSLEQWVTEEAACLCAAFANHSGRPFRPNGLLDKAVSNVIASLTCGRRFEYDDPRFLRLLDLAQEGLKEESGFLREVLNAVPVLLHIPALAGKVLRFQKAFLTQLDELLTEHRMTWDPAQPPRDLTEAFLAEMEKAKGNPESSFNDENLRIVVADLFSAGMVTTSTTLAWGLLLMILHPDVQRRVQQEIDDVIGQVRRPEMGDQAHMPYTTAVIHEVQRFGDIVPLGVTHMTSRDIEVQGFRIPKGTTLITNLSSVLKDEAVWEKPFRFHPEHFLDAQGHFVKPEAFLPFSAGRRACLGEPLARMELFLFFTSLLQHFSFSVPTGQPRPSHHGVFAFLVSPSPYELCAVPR
Experimental: as §4, §5

[7] = target: T5, CYP3A4 (Homo sapiens, UniProt P08684); assay: as above; assay type: in vitro ADME
T5 construct: 0.2–0.5 mg/mL pooled human liver microsomes; from tissue; host or cells: pooled human liver microsomes
T5 sequence (P08684 whole entry): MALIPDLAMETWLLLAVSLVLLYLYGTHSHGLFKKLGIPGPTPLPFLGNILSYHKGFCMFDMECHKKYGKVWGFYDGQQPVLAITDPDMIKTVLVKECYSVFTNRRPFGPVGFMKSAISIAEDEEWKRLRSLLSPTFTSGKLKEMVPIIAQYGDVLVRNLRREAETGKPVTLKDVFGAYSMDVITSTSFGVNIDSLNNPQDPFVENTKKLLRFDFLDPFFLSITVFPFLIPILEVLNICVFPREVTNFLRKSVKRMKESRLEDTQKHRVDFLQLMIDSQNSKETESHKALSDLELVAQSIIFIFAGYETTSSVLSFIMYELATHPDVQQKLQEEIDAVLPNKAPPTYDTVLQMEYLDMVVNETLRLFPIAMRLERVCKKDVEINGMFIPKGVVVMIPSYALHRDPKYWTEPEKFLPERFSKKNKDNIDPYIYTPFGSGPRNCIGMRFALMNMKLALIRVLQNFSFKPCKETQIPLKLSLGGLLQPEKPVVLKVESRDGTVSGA
Experimental: as §4, §5

efflux ratio at 2 h, 10 µM [1]: 0.85
Permeability (in words) ([2]; 10 μM): high in vitro GI permeability
IC50 [3]: 4.7 µM
IC50 [4]: > 100 µM
IC50 [5]: > 100 µM
IC50 [6]: > 100 µM
IC50 ([7]; substrate Midazolam): > 100 µM
IC50 ([7]; substrate Testosterone): 95 µM
Structure (SMILES): O=Cc1c(O)cccc1OCc1cccc(CO)n1 [VZHE-039, 2-((6-(Hydroxymethyl)pyridin-2-yl)methoxy)-6-hydroxybenzaldehyde]
Efflux transporter (P-gp) substrate (in words) [2]: not an efflux transporter (P-gp) substrate
